{
  "source": "patent US20240369551A1",
  "about": "(priority 2021, published 2024)",
  "key": {"[1]": {"biological_target": "epitope-specific SARS-CoV-2 IgGs", "assay": "SPR spectroscopy (Biacore T200): IgG binding to immobilized biotinylated peptide epitopes", "design": "species or system rabbit", "details": "for binding affinities (estimated Kd, order of magnitude): Example 9, kinetic fitting, streptavidin treated CM5 chip; for apparent Kd: kinetic analysis, very slow dissociation, beyond the instrument sensitivity limit; for Kd: respective target IgG, 25° C."}, "SARS-CoV-2 IgG": {"tested_on": "SARS-CoV-2 IgG", "assay": "Fluorescence polarization (FP) of FITC-labeled epitopes with IgG", "type": "binding, rabbit", "details": "100 nM FITC-labeled epitope, 200 nM IgG, 15 min, 1×PBS"}, "[2]": {"tested_on": "SARS-CoV-2 IgG antibodies", "assay": "Immunoassay with epitope-tagged AuNPs (aggregation, relative change in absorbance at 534 nm)", "type": "binding, rabbit", "details": "for limit of detection (LOD): single epitope-functionalized AuNPs (streptavidin-biotin), respective SARS-CoV-2 IgG; for nanosensor response: 100 nM anti-S1 IgG; for LOD: detection of anti-SARS-CoV-2 S1 IgG; for decrease of normalized plasmon peak intensity (534 nm): anti-SARS-CoV-2 S1 IgG", "description": "(§1) SARS-CoV-2 IgG antibodies and control antibodies were first diluted in 1×PBS. In a typical experiment, 5 μL of prediluted antibody solution was added to 45 μL of epitope-functionalized AuNPs. The mixture was spun briefly for 20 s at 6000 rpm using a portable microcentrifuge (Profuge 6K) and incubated for another 30 min at room temperature. Absorbance spectra of the supernatant were recorded using a microplate reader (Synergy 2; BioTek). Sensor response was calculated as the relative change in absorbance at 534 nm. For a time-profile study, the absorbance spectra were recorded at 10 min intervals. For a salt-induced aggregation test, solutions of AuNPs were treated with 1×PBS and the absorbance spectra were recorded after a 30 min incubation. For a selectivity screen against other human coronaviruses, the concentration of antibodies was 100 nM. To investigate the sensitivity of AuNPs in human plasma, SARS-CoV-2 IgG rabbit antibodies were spiked into PBS containing various concentrations of human plasma, such that the final plasma concentration after mixing with AuNPs was 0%, 10%, and 20% (v/v)."}, "COVID19 anti-S1 IgG": {"tested_on": "COVID19 anti-S1 IgG", "assay": "UV-vis aggregation test of peptide-coated nanoparticles (Examples 1, 6, 7, 8)", "type": "binding", "details": "for response to COVID-19 IgGs: single epitope thiol-AuNP conjugation with thiolyated spacer CALNN"}, "MERS IgGs": {"tested_on": "MERS IgGs", "type": "binding"}, "HCoV-HKU1 IgGs": {"tested_on": "HCoV-HKU1 IgGs", "assay": "Immunoassay with epitope-tagged AuNPs, selectivity screen", "type": "binding", "details": "100 nM antibodies", "description": "as §1"}, "COVID19 anti-S2 IgG": {"tested_on": "COVID19 anti-S2 IgG", "assay": "UV-vis aggregation test of peptide-AuNP conjugates (Example 2)", "type": "binding", "details": "streptavidin-biotin conjugates, peptide 10 or 1 μM", "description": "Citrate-coated AuNP was functionalized with streptavidin (SA) by mixing 500 nM of SA with 8 nM of citrate-coated AuNP. The mixture was incubated at room temperature for 30 min, and unbound SA was removed from the SA-coated AuNPs (SA-AuNPs) with centrifugation at 12,500 RCF for 15 mins. Then, biotinylated S20P2 or S21P2 peptide (10 or 1 μM) was added to conjugate to the SA-AuNPs. Unreacted peptides were removed from the peptide-AuNP conjugates with centrifugation at 12500 RCF for 12 mins. The conjugates were reconstituted into ultrapure water for further tests with IgG.\nFor IgG test, 20 μL of COVID19 anti-S2 IgG (SINO Biological) was added to 80 μL of peptide-AuNP conjugates in a 96-well plate. UV-vis spectrum before and after IgG addition are recorded (FIGS. 3A and B). […] For both conjugates, a higher degree of aggregation is observed when lower peptide concentration (1 μM) is used, presumably due to the diluted coating density around AuNP which poses less steric hindrance for binding with IgG."}, "SARS-CoV IgG": {"tested_on": "SARS-CoV IgG", "type": "binding"}, "normal human IgG": {"tested_on": "normal human IgG", "assay": "Immunoassay with epitope-tagged AuNPs, control IgG", "type": "binding", "description": "as §1"}, "[3]": {"details": "real-time kinetic analysis, 1:1 Langmuir model, read-out: Kd from kinetic analysis"}, "[4]": {"details": "steady-state analysis without dissociation step, read-out: Kd from steady-state analysis"}},
  "note": "“And” between values parts separate entries of the source, which are not always exact repeats. Identical values can stand only once. Like-named read-outs stand apart in the source and are kept apart here. Ends that are not written are not given here.",
  "data": [
    {"substance": "TESNKKFLPFQQFGRDIA [S14P5]", "values": [
      {"measurement": "binding affinities (estimated Kd, order of magnitude)", "setting": "[1]", "result": "pM"},
      {"measurement": "apparent Kd", "setting": "[1]", "result": "low pM range"},
      {"measurement": "Kd", "setting": "[1]; [3]", "result": "< 1", "unit": "nM"},
      {"measurement": "Kd", "setting": "[1]; [4]", "result": "111 ± 15", "unit": "nM"},
      {"measurement": "relative FP increase", "setting": "SARS-CoV-2 IgG", "result": "highest relative FP increase"},
      {"measurement": "limit of detection (LOD)", "setting": "[2]", "result": 4.1, "unit": "nM"},
      {"measurement": "response to COVID-19 IgGs", "setting": "COVID19 anti-S1 IgG", "result": "resulted in nanoparticle aggregation"}
    ]},
    {"substance": "PSKPSKRSFIEDLLFNKV [S21P2]", "values": [
      {"measurement": "binding affinities (estimated Kd, order of magnitude)", "setting": "[1]", "result": "pM"},
      {"measurement": "apparent Kd", "setting": "[1]", "result": "low pM range"},
      {"measurement": "Kd", "setting": "[1]; [3]", "result": "< 1", "unit": "nM"},
      {"measurement": "Kd", "setting": "[1]; [4]", "result": "125 ± 7", "unit": "nM"},
      {"measurement": "relative FP increase", "setting": "SARS-CoV-2 IgG", "result": "significant increase in FP values"},
      {"measurement": "limit of detection (LOD)", "setting": "[2]", "result": 5.1, "unit": "nM"},
      {"measurement": "response to COVID-19 IgGs", "setting": "COVID19 anti-S1 IgG", "result": "resulted in nanoparticle aggregation"}
    ]},
    {"substance": "NNAAIVLQLPQGTTLPKG [N4P5]", "values": [
      {"measurement": "binding affinities (estimated Kd, order of magnitude)", "setting": "[1]", "result": "μM"},
      {"measurement": "Kd", "setting": "[1]; [3]", "result": "~218 nM and 218 nM"},
      {"measurement": "Kd", "setting": "[1]; [4]", "result": "1610 ± 120", "unit": "nM"},
      {"measurement": "relative FP increase", "setting": "SARS-CoV-2 IgG", "result": "comparably lower percentage of FP increase"},
      {"measurement": "limit of detection (LOD)", "setting": "[2]", "result": 25.8, "unit": "nM"}
    ]},
    {"substance": "S21P2-AuNPs: Streptavidin-coated gold nanoparticles functionalized with biotinylated S21P2 epitope (PSKPSKRSFIEDLLFNKV; also: biotinylated, bound to streptavidin-coated gold nanoparticles)", "values": [
      {"measurement": "limit of detection (LOD)", "setting": "[2]", "result": 5.1, "unit": "nM"},
      {"measurement": "sensor response", "setting": "MERS IgGs", "result": "minimal sensor response"},
      {"measurement": "sensor response", "setting": "HCoV-HKU1 IgGs", "result": "minimal sensor response"},
      {"measurement": "aggregation of peptide-coated AuNPs", "setting": "COVID19 anti-S2 IgG", "result": "significant aggregation"}
    ]},
    {"substance": "GIAVEQDKNTQEVFAQVK [S20P2]", "values": [
      {"measurement": "binding affinities (estimated Kd, order of magnitude)", "setting": "[1]", "result": "nM"},
      {"measurement": "Kd", "setting": "[1]; [3]", "result": "~80 nM and 80 nM"},
      {"measurement": "Kd", "setting": "[1]; [4]", "result": "510 ± 34", "unit": "nM"},
      {"measurement": "relative FP increase", "setting": "SARS-CoV-2 IgG", "result": "significant increase in FP values"},
      {"measurement": "limit of detection (LOD)", "setting": "[2]", "result": 15.4, "unit": "nM"}
    ]},
    {"substance": "S14P5/S21P2-AuNPs: Streptavidin-coated gold nanoparticles functionalized with both biotinylated S14P5 and S21P2 epitopes (peptide 1 TESNKKFLPFQQFGRDIA; peptide 2 PSKPSKRSFIEDLLFNKV; also: biotinylated peptides on streptavidin-coated gold nanoparticle)", "values": [
      {"measurement": "recognition of anti-S1 and anti-S2 IgGs of SARS-CoV-2", "setting": "[2]; 50 nM of anti-S1 IgG or anti-S2 IgG (FIG. 23)", "result": "able to recognize both anti-S1 and anti-S2 IgGs"},
      {"measurement": "nanosensor response", "setting": "[2]; 5-fold diluted human plasma", "result": 14.6, "unit": "%"},
      {"measurement": "nanosensor response", "setting": "[2]; 10-fold diluted human plasma", "result": 22.8, "unit": "%"},
      {"measurement": "nanosensor response", "setting": "[2]; pure PBS", "result": 78.2, "unit": "%"},
      {"measurement": "LOD", "setting": "[2]", "result": 3.2, "unit": "nM"}
    ]},
    {"substance": "S14P5-AuNPs: Gold nanoparticles functionalized with S14P5; streptavidin-biotin in Example 10, thiol-gold with or without CALNN spacer in Examples 1 and 6 (TESNKKFLPFQQFGRDIA; also: conjugated to gold nanoparticles via streptavidin-biotin or thiol-gold, with or without CALNN spacer)", "values": [
      {"measurement": "decrease of normalized plasmon peak intensity (534 nm)", "setting": "[2]; first 10 min", "result": 40.2, "unit": "%"},
      {"measurement": "decrease of normalized plasmon peak intensity (534 nm)", "setting": "[2]; leveling off within 30 min", "result": 67.3, "unit": "%"},
      {"measurement": "LOD", "setting": "[2]", "result": 4.1, "unit": "nM"},
      {"measurement": "limit of detection (LOD)", "setting": "[2]", "result": 4.1, "unit": "nM"},
      {"measurement": "dose-dependent aggregation response (decrease in plasmon peak intensity)", "setting": "SARS-CoV IgG", "result": "absent"},
      {"measurement": "normalized sensor response", "setting": "SARS-CoV IgG", "result": 11.4, "unit": "%"},
      {"measurement": "normalized sensor response with SARS-CoV IgG relative to SARS-CoV-2 IgG (fold lower)", "setting": "SARS-CoV IgG; after 60 min", "result": 6, "unit": "fold"},
      {"measurement": "sensor response", "setting": "MERS IgGs", "result": "minimal sensor response"},
      {"measurement": "sensor response", "setting": "HCoV-HKU1 IgGs", "result": "minimal sensor response"},
      {"measurement": "dose-dependent aggregation response (decrease in plasmon peak intensity)", "setting": "normal human IgG", "result": "absent"},
      {"measurement": "IgG concentration giving visible change in colour from red to purple", "setting": "COVID19 anti-S1 IgG; Example 1: thiol-conjugated S14P5 with CALNN blocking", "result": "≥ 100", "unit": "nM"},
      {"measurement": "linear range", "setting": "COVID19 anti-S1 IgG; Example 1: thiol-conjugated S14P5 with CALNN blocking, absorbance ratio", "result": "10 to 100", "unit": "nM"},
      {"measurement": "LOD", "setting": "COVID19 anti-S1 IgG; Example 1: thiol-conjugated S14P5 with CALNN blocking, absorbance ratio, 15 min", "result": "~30 nM and 4.5 μg/ml"},
      {"measurement": "binding / nanoparticle aggregation", "setting": "COVID19 anti-S1 IgG; thiol-AuNP conjugation without spacer, COVID-19 anti-S1 IgG (100 nM)", "result": "unable to bind to anti COVID-19 IgGs"}
    ]}
  ]
}
